Measured values as given in PubChem BioAssay (NCI).
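Tested at 5 concentrations; 48 h exposure; 96-well plates; endpoints linearly interpolated, else capped at highest concentration. GI50: concentration for 50% inhibition of growth. TGI marks complete inhibition of growth.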

Key:
Experiment in all cases: NCI tumour cell line growth inhibition, 48 h
[1] = tested on: 786-0 renal
[2] = tested on: A498 renal
[3] = tested on: A549 NSCLC
[4] = tested on: ACHN renal
[5] = tested on: BT-549 breast
[6] = tested on: CAKI-1 renal
[7] = tested on: CCRF-CEM leukemia
[8] = tested on: COLO 205 colon
[9] = tested on: DU-145 prostate
[10] = tested on: EKVX NSCLC
[11] = tested on: HCC-2998 colon
[12] = tested on: HCT-116 colon
[13] = tested on: HCT-15 colon
[14] = tested on: HL-60(TB) leukemia
[15] = tested on: HOP-62 NSCLC
[16] = tested on: HOP-92 NSCLC
[17] = tested on: HS 578T breast
[18] = tested on: HT29 colon
[19] = tested on: IGROV1 ovarian
[20] = tested on: K-562 leukemia
[21] = tested on: KM12 colon
[22] = tested on: LOX IMVI melanoma
[23] = tested on: M14 melanoma
[24] = tested on: MALME-3M melanoma
[25] = tested on: MCF7 breast
[26] = tested on: MDA-MB-231 breast
[27] = tested on: MDA-MB-435
[28] = tested on: MOLT-4 leukemia
[29] = tested on: NCI-H226 lung
[30] = tested on: NCI-H23 lung
[31] = tested on: NCI-H460 lung
[32] = tested on: NCI-H522 lung
[33] = tested on: NCI/ADR-RES ovarian
[34] = tested on: OVCAR-3 ovarian
[35] = tested on: OVCAR-4 ovarian
[36] = tested on: OVCAR-5 ovarian
[37] = tested on: OVCAR-8 ovarian
[38] = tested on: PC-3 prostate
[39] = tested on: RPMI-8226 leukemia
[40] = tested on: RXF 393 renal
[41] = tested on: SF-268 CNS
[42] = tested on: SF-295 CNS
[43] = tested on: SF-539 CNS
[44] = tested on: SK-MEL-28 melanoma
[45] = tested on: SK-MEL-5 melanoma
[46] = tested on: SK-OV-3 ovarian
[47] = tested on: SN12C renal
[48] = tested on: SNB-19 CNS
[49] = tested on: SNB-75 CNS
[50] = tested on: SR leukemia
[51] = tested on: SW-620 colon
[52] = tested on: T-47D breast
[53] = tested on: TK-10 renal
[54] = tested on: U251 CNS
[55] = tested on: UACC-257 melanoma
[56] = tested on: UACC-62 melanoma
[57] = tested on: UO-31 renal

O=C1c2ccccc2C(=O)c2c(Nc3ccc(CCO)cc3)ccc(O)c21
GI50 [1]: 17.2 µM | TGI [1]: 60.1 µM | GI50 [2]: 16.4 µM | TGI [2]: 40.2 µM | GI50 [3]: 6.43 µM | TGI [3]: > 100 µM | GI50 [4]: 4.3 µM | TGI [4]: 45.2 µM | GI50 [5]: 9.82 µM | TGI [5]: 68.5 µM | GI50 [6]: 6.81 µM | TGI [6]: > 100 µM | GI50 [7]: 3.61 µM | TGI [7]: 30.7 µM | GI50 [8]: 4.86 µM | TGI [8]: 21.7 µM | GI50 [9]: 7.67 µM | TGI [9]: 42.7 µM | GI50 [10]: 4.69 µM | TGI [10]: > 100 µM | GI50 [11]: 9.42 µM | TGI [11]: 28.3 µM | GI50 [12]: 8.71 µM | TGI [12]: > 100 µM | GI50 [13]: 4.28 µM | TGI [13]: 38.7 µM | GI50 [14]: 25.6 µM | TGI [14]: > 100 µM | GI50 [15]: 21.4 µM | TGI [15]: 45.9 µM | GI50 [16]: 4.52 µM | TGI [16]: 26.3 µM | GI50 [17]: 3.52 µM | TGI [17]: 48 µM | GI50 [18]: 4.09 µM | TGI [18]: 14.9 µM | GI50 [19]: 1.41 µM | TGI [19]: 32.6 µM | GI50 [20]: 18.4 µM | TGI [20]: > 100 µM | GI50 [21]: 4.74 µM | TGI [21]: 36.3 µM | GI50 [22]: 3.15 µM | TGI [22]: 14.5 µM | GI50 [23]: 12.9 µM | TGI [23]: 61.4 µM | GI50 [24]: 12.8 µM | TGI [24]: 58 µM | GI50 [25]: 0.504 µM | TGI [25]: 36.4 µM | GI50 [26]: 3.3 µM | TGI [26]: 24.9 µM | GI50 [27]: 22.6 µM | TGI [27]: > 100 µM | GI50 [28]: 10.7 µM | TGI [28]: > 100 µM | GI50 [29]: 14.8 µM | TGI [29]: 48.9 µM | GI50 [30]: 17.3 µM | TGI [30]: 88.7 µM | GI50 [31]: 3.57 µM | TGI [31]: 15.1 µM | GI50 [32]: 3.56 µM | TGI [32]: 16.7 µM | GI50 [33]: 17.6 µM | TGI [33]: 94.4 µM | GI50 [34]: 13.2 µM | TGI [34]: > 100 µM | GI50 [35]: 9.13 µM | TGI [35]: > 100 µM | GI50 [36]: 21.1 µM | TGI [36]: 62.6 µM | GI50 [37]: 17.4 µM | TGI [37]: > 100 µM | GI50 [38]: 6.34 µM | TGI [38]: 25.5 µM | GI50 [39]: 5.49 µM | TGI [39]: 36.5 µM | GI50 [40]: 6.54 µM | TGI [40]: 23.7 µM | GI50 [41]: 11 µM | TGI [41]: > 100 µM | GI50 [42]: 11.8 µM | TGI [42]: 47.4 µM | GI50 [43]: 10.2 µM | TGI [43]: 27.3 µM | GI50 [44]: 12.3 µM | TGI [44]: 55.2 µM | GI50 [45]: 11.7 µM | TGI [45]: 33.5 µM | GI50 [46]: 11 µM | TGI [46]: 64.8 µM | GI50 [47]: 16.9 µM | TGI [47]: > 100 µM | GI50 [48]: 23 µM | TGI [48]: 72.2 µM | GI50 [49]: 5.09 µM | TGI [49]: 29 µM | GI50 [50]: 7.71 µM | TGI [50]: > 100 µM | GI50 [51]: 6.69 µM | TGI [51]: 67.5 µM | GI50 [52]: 0.987 µM | TGI [52]: 26.1 µM | GI50 [53]: 21.8 µM | TGI [53]: > 100 µM | GI50 [54]: 8.33 µM | TGI [54]: 85.8 µM | GI50 [55]: 20.3 µM | TGI [55]: 70.7 µM | GI50 [56]: 10.2 µM | TGI [56]: 32.3 µM | GI50 [57]: 2.2 µM | TGI [57]: 26.9 µM
